# Source: patent US10577363B2, “Substituted piperidine compounds” (EPIZYME, INC., priority 2014, dated 2020)
# Biological target: SMYD3 (Homo sapiens (Human), UniProt Q9H7B4)
# Assay: SMYD3 biochemical assay (SPA, 3H-SAM methylation of MEKK2 protein substrate)
# Conditions: Table 1A; IC50 values are an average of n = 1 to n = 50; read-out: SMYD3 Biochem IC50
# How it was run: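 Native full-length human SMYD3 (E. coli-expressed, tags removed) was preincubated with compound for 30 min at room temperature in 25 mM Tris-Cl pH 8.0, 1 mM TCEP, 0.005% BSG, 0.005% Tween 20. Reaction was started with 3H-SAM plus GST-MEKK2, quenched with 100 uM unlabeled SAM, and read by SPA scintillation counting.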
row,SMILES,IC50 [µM]
1,"O=C(N[C@H]1C[C@H]2CC[C@@H](C1)N2S(=O)(=O)c1cc2oc(=O)[nH]c2cc1Cl)c1cc(C2CC2)on1 [compound 492, N-((1R,3r,5S)-8-((5-chloro-2-oxo-2,3-dihydrobenzo[d]oxazol-6-yl)sulfonyl)-8-azabicyclo[3.2.1]octan-3-yl)-5-cyclopropylisoxazole-3-carboxamide]",> 10

# Same assay, conditions: read-out: SMYD3 Biochem IC50
row,IC50 [µM],SMILES
1,> 10,"CC(C)CN(C)c1ccc(S(=O)(=O)N2C3CCCC2CC(NC(=O)c2cc(C4CC4)on2)C3)cn1 (stereo not drawn) [compound 514, 5-cyclopropyl-N-(9-((6-(isobutyl(methyl)amino)pyridin-3-yl)sulfonyl)-9-azabicyclo[3.3.1]nonan-3-yl)isoxazole-3-carboxamide]"

# Same assay, conditions: read-out: SMYD3 Biochem IC50 (μM)*
row,IC50 [µM],SMILES
1,1.23,"C[C@@H](N)C(=O)NC[C@H](Cc1ccc(O)c(I)c1)C(=O)N1CCC(NC(=O)c2cc(C3CC3)on2)CC1 [compound 43, N-(1-((S)-3-((R)-2-aminopropanamido)-2-(4-hydroxy-3-iodobenzyl)propanoyl)piperidin-4-yl)-5-cyclopropylisoxazole-3-carboxamide]"
2,> 10,"COCCCS(=O)(=O)N1CC[C@H](NC(=O)c2cc(C3CC3)on2)C[C@H]1C [compound 284, 5-cyclopropyl-N-((2R,4S)-1-((3-methoxypropyl)sulfonyl)-2-methylpiperidin-4-yl)isoxazole-3-carboxamide]"
3,3.65,"C[C@H]1CC(NC(=O)c2cc(C3CC3)on2)CCN1C(=O)CCCN (stereo partly drawn) [compound 142, N-((2S)-1-(4-aminobutanoyl)-2-methylpiperidin-4-yl)-5-cyclopropylisoxazole-3-carboxamide]"
4,0.506,"CC1CC(CC(=O)N2CCC(NC(=O)c3cc(C4CC4)on3)C[C@H]2C)CCN1 (stereo partly drawn) [compound 166, 5-cyclopropyl-N-((2R)-2-methyl-1-(2-(2-methylpiperidin-4-yl)acetyl)piperidin-4-yl)isoxazole-3-carboxamide]"
5,7.17,"N[C@H]1CC[C@H](C(=O)N2CCC(NC(=O)c3cc(C4CC4)on3)C[C@@H]2c2ccccc2)CC1 (stereo partly drawn) [compound 163, N-((2R)-1-((1r,4R)-4-aminocyclohexane-1-carbonyl)-2-phenylpiperidin-4-yl)-5-cyclopropylisoxazole-3-carboxamide]"
6,5.02,"C[C@@H]1C[C@@H](NC(=O)c2cc(C3CC3)on2)CCN1C(=O)CC(CN)c1ccccc1 (stereo partly drawn) [compound 313, N-((2R,4S)-1-(4-amino-3-phenylbutanoyl)-2-methylpiperidin-4-yl)-5-cyclopropylisoxazole-3-carboxamide]"
7,22.1,"C[C@@H]1CC(NC(=O)c2cc(C3CC3)on2)CCN1C(=O)CN (stereo partly drawn) [compound 81, 5-cyclopropyl-N-((2R)-1-glycyl-2-methylpiperidin-4-yl)isoxazole-3-carboxamide]"
8,2.97,"C[C@@H]1CC(NC(=O)c2cc(C3CC3)on2)CCN1C(=O)[C@@H](N)Cc1ccc(O)cc1 (stereo partly drawn) [compound 6, N-((2R)-1-(L-tyrosyl)-2-methylpiperidin-4-yl)-5-cyclopropylisoxazole-3-carboxamide]"
9,> 10,"C[C@H]1C[C@H](NC(=O)c2cc(C3CC3)on2)CCN1S(=O)(=O)c1ccc(Cl)nc1 [compound 287, N-((2S,4R)-1-((6-chloropyridin-3-yl)sulfonyl)-2-methylpiperidin-4-yl)-5-cyclopropylisoxazole-3-carboxamide]"
10,2.02,"C[C@H]1CC(NC(=O)c2cc(C3CC3)on2)CCN1C(=O)C1CC2(CCNC2)C1 (stereo partly drawn) [compound 178, 5-cyclopropyl-N-((2S)-2-methyl-1-(6-azaspiro[3.4]octane-2-carbonyl)piperidin-4-yl)isoxazole-3-carboxamide]"
11,5.33,"CN[C@H]1CC[C@H](C(=O)N2CCC(NC(=O)c3cc(C4CC4)on3)C[C@@H]2C)CC1 (stereo partly drawn) [compound 90, 5-cyclopropyl-N-((2S)-2-methyl-1-((1r,4S)-4-(methylamino)cyclohexane-1-carbonyl)piperidin-4-yl)isoxazole-3-carboxamide]"
12,8.52,"C[C@@H]1C[C@@H](NC(=O)c2cc(C3CC3)on2)CCN1C(=O)CC1(CN)CCCCC1 [compound 267, N-((2R,4S)-1-(2-(1-(aminomethyl)cyclohexyl)acetyl)-2-methylpiperidin-4-yl)-5-cyclopropylisoxazole-3-carboxamide]"
13,2.72,"C[C@H]1CC(NC(=O)c2cc(C3CC3)on2)CCN1C(=O)[C@H]1C[C@H](N)C1 (stereo partly drawn) [compound 72, N-((2S)-1-((1r,3S)-3-aminocyclobutane-1-carbonyl)-2-methylpiperidin-4-yl)-5-cyclopropylisoxazole-3-carboxamide]"
14,2.95,"O=C(N[C@@H]1CCN(C(=O)CC2CCNCC2)C[C@@H]1CO)c1cc(C2CC2)on1 [compound 362, 5-cyclopropyl-N-((3S,4R)-3-(hydroxymethyl)-1-(2-(piperidin-4-yl)acetyl)piperidin-4-yl)isoxazole-3-carboxamide]"
15,> 10,"COC(=O)CCS(=O)(=O)N1CC[C@@H](NC(=O)c2cc(C3CC3)on2)C[C@@H]1C [compound 290, methyl 3-(((2S,4R)-4-(5-cyclopropylisoxazole-3-carboxamido)-2-methylpiperidin-1-yl)sulfonyl)propanoate]"
16,1.17,"C[C@@H]1CC(NC(=O)c2cc(C3CC3)on2)CCN1C(=O)[C@@H](CN)Cc1ccc(O)cc1 (stereo partly drawn) [compound 357, N-((2R)-1-((R)-3-amino-2-(4-hydroxybenzyl)propanoyl)-2-methylpiperidin-4-yl)-5-cyclopropylisoxazole-3-carboxamide]"
17,> 10,"C[C@H]1C[C@H](NC(=O)c2cc(C3CC3)on2)CCN1S(=O)(=O)N1CCCC1 [compound 288, 5-cyclopropyl-N-((2S,4R)-2-methyl-1-(pyrrolidin-1-ylsulfonyl)piperidin-4-yl)isoxazole-3-carboxamide]"
18,2.23,"C[C@H]1CC(NC(=O)c2cc(C3CC3)on2)CCN1C(=O)N1CCC(N)CC1 (stereo partly drawn) [compound 201, N-((2S)-1-(4-aminopiperidine-1-carbonyl)-2-methylpiperidin-4-yl)-5-cyclopropylisoxazole-3-carboxamide]"
19,1.25,"CC1(C)CN(C(=O)CCCN)CCC1NC(=O)c1cc(C2CC2)on1 (stereo not drawn) [compound 161, N-(1-(4-aminobutanoyl)-3,3-dimethylpiperidin-4-yl)-5-cyclopropylisoxazole-3-carboxamide]"
20,6.6,"C[C@H]1C[C@H](NC(=O)c2cc(C3CC3)on2)CCN1C(=O)CCN [compound 83, N-((2S,4R)-1-(3-aminopropanoyl)-2-methylpiperidin-4-yl)-5-cyclopropylisoxazole-3-carboxamide]"
21,3.15,"C[C@@H]1C[C@@H](NC(=O)c2cc(C3CC3)on2)CCN1C(=O)CC(C)(C)CN [compound 268, N-((2R,4S)-1-(4-amino-3,3-dimethylbutanoyl)-2-methylpiperidin-4-yl)-5-cyclopropylisoxazole-3-carboxamide]"
22,4.31,"C[C@H]1CC(NC(=O)c2cc(C3CC3)on2)CCN1C[C@H]1CC[C@H](N)CC1 (stereo partly drawn) [compound 138, N-((2S)-1-(((1r,4S)-4-aminocyclohexyl)methyl)-2-methylpiperidin-4-yl)-5-cyclopropylisoxazole-3-carboxamide]"
23,4.68,"C[C@H]1CC(NC(=O)c2cc(C3CC3)on2)CCN1C(=O)CC1(CN)CCC1 (stereo partly drawn) [compound 204, N-((2S)-1-(2-(1-(aminomethyl)cyclobutyl)acetyl)-2-methylpiperidin-4-yl)-5-cyclopropylisoxazole-3-carboxamide]"
24,7.34,"CC1(NC(=O)c2cc(C3CC3)on2)CCN(C(=O)CCCN)CC1 [compound 158, N-(1-(4-aminobutanoyl)-4-methylpiperidin-4-yl)-5-cyclopropylisoxazole-3-carboxamide]"
25,1.32,"O=C(N[C@@H]1CCN(C(=O)CC2CCNCC2)[C@@H](Cc2ccccc2)C1)c1cc(C2CC2)on1 [compound 376, N-((2S,4R)-2-benzyl-1-(2-(piperidin-4-yl)acetyl)piperidin-4-yl)-5-cyclopropylisoxazole-3-carboxamide]"
26,10.5,"C[C@H]1C[C@@H](NC(=O)c2cc(C3CC3)on2)CCN1C(=O)CCN [compound 82, N-((2S,4S)-1-(3-aminopropanoyl)-2-methylpiperidin-4-yl)-5-cyclopropylisoxazole-3-carboxamide]"
27,3.6,"CC[C@H]1CN(C(=O)CCCN)CC[C@@H]1NC(=O)c1cc(C2CC2)on1 [compound 300, N-((3S,4S)-1-(4-aminobutanoyl)-3-ethylpiperidin-4-yl)-5-cyclopropylisoxazole-3-carboxamide]"
28,2,"C[C@H]1CN(C(=O)[C@H]2CC[C@H](N)CC2)CCC1NC(=O)c1cc(C2CC2)on1 (stereo partly drawn) [compound 24, N-((3S)-1-((1r,4S)-4-aminocyclohexane-1-carbonyl)-3-methylpiperidin-4-yl)-5-cyclopropylisoxazole-3-carboxamide]"
29,2.91,"C[C@@H]1CC(NC(=O)c2cc(C3CC3)on2)CCN1C(=O)CC1(C)CCNCC1 (stereo partly drawn) [compound 116, 5-cyclopropyl-N-((2R)-2-methyl-1-(2-(4-methylpiperidin-4-yl)acetyl)piperidin-4-yl)isoxazole-3-carboxamide]"
30,0.305,"C[C@H]1C[C@H](NC(=O)c2cc(C3CC3)on2)CCN1S(=O)(=O)c1ccc(N(C)CCN)nc1 [compound 462, N-((2S,4R)-1-((6-((2-aminoethyl)(methyl)amino)pyridin-3-yl)sulfonyl)-2-methylpiperidin-4-yl)-5-cyclopropylisoxazole-3-carboxamide]"

row,SMILES,IC50 [µM]
1,"C[C@@H]1CN(S(=O)(=O)CCCN)CC[C@H]1NC(=O)c1cc(C2CC2)on1 [compound 388, N-((3R,4R)-1-((3-aminopropyl)sulfonyl)-3-methylpiperidin-4-yl)-5-cyclopropylisoxazole-3-carboxamide]",0.462
